Test results taken from patent US20210038753A1, “BIOLOGICAL STERILIZATION INDICATOR WITH STERILANT RESISTANCE MODULATOR” (3M INNOVATIVE PROPERTIES COMPANY, priority 2014, published 2021).

Tested on: Geobacillus stearothermophilus spores
Test: Resistance of self-contained biological indicators to hydrogen peroxide sterilization, growth readout by pH colour change (GRO+)
Assay type: cell-based
Experimental: PET film (.09 mm thick) was coated with colloidal silica as described in International Publication No. WO2014/189716, which is incorporated herein by reference in its entirety. […] Separate aqueous spore coating solutions were prepared as described in Example 1 with the amino acids shown in table 4 present in the coating solutions. Two microliter aliquots (containing at least 10^6 spores) of the respective spore coating solutions were deposited onto the silica-coated PET film, forming a series of spaced-apart spots on the film. The spore coated films were dried in a 60° C. incubator for 12 minutes. Circular discs (hereinafter, “coated carriers”) of the PET film, each disc including one of the dried spots, were punched out and were used to assemble self-contained biological indicators (BI) similar to that shown in FIG. 1 of International Publication No. WO2014/189716. The coated carriers described above were placed into the “spore carrier 135” shown in FIG. 1 of International Publication No. WO2014/189716. Each self-contained BI comprised a polycarbonate outer container, a breaker, a cap, and a cap filter. Disposed inside the outer container were a coated carrier along with an ampoule media containing the nutrient medium from 3M ATTEST 1292 Rapid Readout Biological Indicators plus 5g/L methionine (as described in Example 1).
The self-contained biological indicators with different concentrations of additives (Table 4) were exposed to hydrogen peroxide sterilization in STERRAD NX sterilizer. The sterilization processes were run by manually injecting 1.0 ml of 59% hydrogen peroxide per load, unless specified otherwise. The exposure time was varied to determine the resistance profile of self-contained BIs with different additive formulations. The BIs were activated by pressing down the cap to break the media ampoule. The activated BIs were placed in a bench-top fluorimeter (3M Company, St. Paul, Minn.) to detect fluorescence.
A self-contained BI that is not completely inactivated (i.e., not all of the spores are killed by the sterilization process) will resume cellular functions upon activation of the BI. The production of glucosidase enzyme by surviving spores is an indication that at least one of the spores have not been inactivated (killed) by the sterilization process. The glucosidase enzyme cleaves the 4-methylumbelliferyl-glucoside (MUG) releasing the fluorescent methyl umbelliferone, which is detected using a bench-top fluorimeter. Growth and proliferation of spores in the self-contained biological indicator can also be detected by a pH change, which may be detected by a color change of the pH indicator in the growth medium.
Self-contained biological indicators were prepared (with various additives listed in table 4) as described above in this Example. For each additive tested, a lower range and a higher range was used as a preliminary screen to identify additives modulated the resistance of the spores to the sterilant. Five self-contained BIs representing each condition were exposed to hydrogen peroxide sterilization in STERRAD NX sterilizer. The sterilization processes used a constant injection volume (1.0 ml of 59% hydrogen peroxide) and various times (e.g., 20 seconds to 7 minutes) of exposure to the hydrogen peroxide. The self-contained BIs were activated after exposure to the sterilization process and were monitored for fluorescence using a bench-top fluorimeter) and pH based color change (visually). […]
Self-contained biological indicators (with various additives listed in table 5) were prepared as described in Example 2. The self-contained biological indicators were exposed to hydrogen peroxide in a STERRAD NX sterilizer as described in Example 2. The self-contained BIs were activated after exposure to the sterilization process and were monitored for fluorescence using a bench-top fluorimeter and pH based color change (visually).

**Q.** Which results are given for `N=C(N)NCCC[C@H](N)C(=O)O` [L-arginine]?
**A.** sensitivity of the biological indicator to the sterilization process relative to the control with no additives (Example 2 / Comparative Example 1 (Table 4), fluorescence and growth readouts): increased sensitivity (decreased resistance); sensitivity of the spores to the damaging/lethal effects of the sterilization process relative to the control with no additives (Example 3 (Table 5), fluorescence and growth readouts): increased sensitivity; percentage of self-contained biological indicators positive for growth (GRO+) (Table 4, modulator 0.01 weight percent in spore coating solution, H2O2 exposure 30 sec.): 100%; percentage of self-contained biological indicators positive for growth (GRO+) (Table 4, modulator 0.01 weight percent in spore coating solution, H2O2 exposure 60 sec.): 0%; percentage of self-contained biological indicators positive for growth (GRO+) (Table 4, modulator 0.01 weight percent in spore coating solution, H2O2 exposure 90 sec.): 0%; percentage of self-contained biological indicators positive for growth (GRO+) (Table 4, modulator 0.01 weight percent in spore coating solution, H2O2 exposure 3 min.): 0%; percentage of self-contained biological indicators positive for growth (GRO+) (Table 4, modulator 0.01 weight percent in spore coating solution, H2O2 exposure 7 min.): 0%; percentage of self-contained biological indicators positive for growth (GRO+) (Table 4, modulator 0.1 weight percent in spore coating solution, H2O2 exposure 30 sec.): 40%; percentage of self-contained biological indicators positive for growth (GRO+) (Table 4, modulator 0.1 weight percent in spore coating solution, H2O2 exposure 60 sec.): 0%; percentage of self-contained biological indicators positive for growth (GRO+) (Table 4, modulator 0.1 weight percent in spore coating solution, H2O2 exposure 90 sec.): 0%; percentage of self-contained biological indicators positive for growth (GRO+) (Table 4, modulator 0.1 weight percent in spore coating solution, H2O2 exposure 3 min.): 0%; percentage of self-contained biological indicators positive for growth (GRO+) (Table 4, modulator 0.1 weight percent in spore coating solution, H2O2 exposure 7 min.): 0%; percentage of self-contained biological indicators positive for growth (GRO+) (Table 5, modulator 0.05 weight percent in spore coating solution, H2O2 exposure 20 sec.): 100%; percentage of self-contained biological indicators positive for growth (GRO+) (Table 5, modulator 0.05 weight percent in spore coating solution, H2O2 exposure 30 sec.): 100%; percentage of self-contained biological indicators positive for growth (GRO+) (Table 5, modulator 0.05 weight percent in spore coating solution, H2O2 exposure 60 sec.): 0%; percentage of self-contained biological indicators positive for growth (GRO+) (Table 5, modulator 0.05 weight percent in spore coating solution, H2O2 exposure 90 sec.): 0%; percentage of self-contained biological indicators positive for growth (GRO+) (Table 5, modulator 0.05 weight percent in spore coating solution, H2O2 exposure 3 min.): 0%; percentage of self-contained biological indicators positive for growth (GRO+) (Table 5, modulator 0.05 weight percent in spore coating solution, H2O2 exposure 7 min.): 0%; percentage of self-contained biological indicators positive for growth (GRO+) (Table 5, modulator 0.1 weight percent in spore coating solution, H2O2 exposure 20 sec.): 100%; percentage of self-contained biological indicators positive for growth (GRO+) (Table 5, modulator 0.1 weight percent in spore coating solution, H2O2 exposure 30 sec.): 100%; percentage of self-contained biological indicators positive for growth (GRO+) (Table 5, modulator 0.1 weight percent in spore coating solution, H2O2 exposure 60 sec.): 0%; percentage of self-contained biological indicators positive for growth (GRO+) (Table 5, modulator 0.1 weight percent in spore coating solution, H2O2 exposure 90 sec.): 0%; percentage of self-contained biological indicators positive for growth (GRO+) (Table 5, modulator 0.1 weight percent in spore coating solution, H2O2 exposure 3 min.): 0%; percentage of self-contained biological indicators positive for growth (GRO+) (Table 5, modulator 0.1 weight percent in spore coating solution, H2O2 exposure 7 min.): 0%; percentage of self-contained biological indicators positive for growth (GRO+) (Table 5, modulator 0.2 weight percent in spore coating solution, H2O2 exposure 20 sec.): 100%; percentage of self-contained biological indicators positive for growth (GRO+) (Table 5, modulator 0.2 weight percent in spore coating solution, H2O2 exposure 30 sec.): 100%; percentage of self-contained biological indicators positive for growth (GRO+) (Table 5, modulator 0.2 weight percent in spore coating solution, H2O2 exposure 60 sec.): 0%; percentage of self-contained biological indicators positive for growth (GRO+) (Table 5, modulator 0.2 weight percent in spore coating solution, H2O2 exposure 90 sec.): 0%; percentage of self-contained biological indicators positive for growth (GRO+) (Table 5, modulator 0.2 weight percent in spore coating solution, H2O2 exposure 3 min.): 0%; percentage of self-contained biological indicators positive for growth (GRO+) (Table 5, modulator 0.2 weight percent in spore coating solution, H2O2 exposure 7 min.): 0%; percentage of self-contained biological indicators positive for growth (GRO+) (Table 5, modulator 0.4 weight percent in spore coating solution, H2O2 exposure 20 sec.): 67%; percentage of self-contained biological indicators positive for growth (GRO+) (Table 5, modulator 0.4 weight percent in spore coating solution, H2O2 exposure 30 sec.): 33%; percentage of self-contained biological indicators positive for growth (GRO+) (Table 5, modulator 0.4 weight percent in spore coating solution, H2O2 exposure 60 sec.): 0%; percentage of self-contained biological indicators positive for growth (GRO+) (Table 5, modulator 0.4 weight percent in spore coating solution, H2O2 exposure 90 sec.): 0%; percentage of self-contained biological indicators positive for growth (GRO+) (Table 5, modulator 0.4 weight percent in spore coating solution, H2O2 exposure 3 min.): 0%; percentage of self-contained biological indicators positive for growth (GRO+) (Table 5, modulator 0.4 weight percent in spore coating solution, H2O2 exposure 7 min.): 0%; percentage of self-contained biological indicators positive for growth (GRO+) (Table 5, modulator 0.8 weight percent in spore coating solution, H2O2 exposure 20 sec.): 33%; percentage of self-contained biological indicators positive for growth (GRO+) (Table 5, modulator 0.8 weight percent in spore coating solution, H2O2 exposure 30 sec.): 0%; percentage of self-contained biological indicators positive for growth (GRO+) (Table 5, modulator 0.8 weight percent in spore coating solution, H2O2 exposure 60 sec.): 0%; percentage of self-contained biological indicators positive for growth (GRO+) (Table 5, modulator 0.8 weight percent in spore coating solution, H2O2 exposure 90 sec.): 0%; percentage of self-contained biological indicators positive for growth (GRO+) (Table 5, modulator 0.8 weight percent in spore coating solution, H2O2 exposure 3 min.): 0%
